This passage reports EC50, IC50 and outcome results from PubChem BioAssay AID179 (DTP/NCI, 2004).

pEC50, pIC50: −log10 of the molar value. Activity calls are given as the source filed them.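 The calls were made as follows: active = compounds giving half or more protection of infected cells from virus-caused growth loss, again on retest; inactive = the rest.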

The test deals with CEM cells HIV-1 protection, formazan growth assay. The experiment in a line: NCI AIDS Antiviral Assay. The conditions noted are these: for pIC50: measured here: growth of uninfected CEM cells. The gist of the method:
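Steps: treat uninfected and HIV-1-infected human CEM cells at five drug levels; quantify growth by soluble formazan; retest any compound reaching 50% protection; classify actives from the retest.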

The pEC50 is the negative decadic logarithm of the EC50, by convention in mol/L. The term pIC50 denotes the IC50 on a negative log10 scale, so that one unit is a factor of ten. A lower pIC50 goes with a high IC50. With `O=C(CCl)N1CCC(CC2(c3cc4ccccc4[nH]3)OCCO2)CC1`, the pEC50 was less than 3.70 and the pIC50 is 5.30.
`OC(c1cc2ccccc2[nH]1)C1(c2cccnc2)SCCCS1` (stereo unspecified): the pEC50 is less than 3.70 and the pIC50 was 4.24.
The corresponding values for `Cc1cccc(C)c1NC(=O)CCCC(=O)C1CCC/C1=N\NC(=O)C(=O)NN` (stereo unspecified) are less than 4.19 and less than 4.19.
The corresponding values for `CC(C)CCC[C@@H](C)[C@H]1CC[C@H]2[C@@H]3CC[C@H]4CC5(C[C@]4(C)[C@H]3CC[C@]12C)Nc1ccccc1S5` (stereo partly specified) are less than 4.70 and less than 4.70.
In the same order, the values of `O=C(O)CCNCCCCNCCC(=O)O` are less than 3.09 and less than 3.09.
Turning to `CC(=O)OCC1OC(n2c(N)c(C#N)c(-c3ccccc3)c(C#N)c2=S)C(OC(C)=O)C(OC(C)=O)C1OC(C)=O` (stereo unspecified), the pEC50 was less than 3.70 and the pIC50 is less than 3.70.
Consider `CC(Oc1ccc(Oc2cnc3ccc(Cl)cc3n2)cc1)C(=O)O` (stereo unspecified), for which the pEC50 is less than 3.85 and the pIC50 is 4.76.
For the compound `c1ccc(NC[Si]23OCCN(CCO2)CCO3)cc1`, the result was inactive.
Consider `CCC1CC[N-]CC1.CCC1CC[N-]CC1.CCC1CC[N-]CC1.CCC1CC[N-]CC1.N#C[S-].N#C[S-].[Mn]`, for which the pEC50 is less than 3.70 and the pIC50 was 4.56.
In the same order, the values of `CC(C)SC1SCC2C(=O)N(C)C3(CC3C)C(=O)OCC(NC(=O)c3nc4ccccc4cc3O)C(=O)NC(C)C(=O)N(C)C1C(=O)N(C)C1(CC1C)C(=O)OCC(NC(=O)c1nc3ccccc3cc1O)C(=O)NC(C)C(=O)N2C` (stereo unspecified) are less than 4.95 and 8.44.
The corresponding values for `Cc1c(Cl)ccc2c1NC(=O)C2(O)C1Cc2ccccc2C1=O` (stereo unspecified) are less than 4.54 and 4.90.
`O=C1[C@H](O)[C@@H]2C(O)O[C@H]3[C@@H]2N1C[C@H]3[Si](c1ccccc1)(c1ccccc1)c1ccccc1` (stereo partly specified): the pEC50 is less than 3.70 and the pIC50 was less than 3.70.
Consider `Cc1ccc(S(=O)(=O)NC(CSSCC(NS(=O)(=O)c2ccc(C)cc2)C(=O)OC(C)(C)C)C(=O)OC(C)(C)C)cc1` (stereo unspecified), for which the pEC50 was less than 3.70 and the pIC50 was less than 3.70.
For the compound `CC(/C=C/c1ccccc1Cl)=N\C(=S)NC(N)=S`, the pEC50 was less than 3.70 and the pIC50 is 4.68.
Consider `CN(C)CCOc1ccc(/C(=C(/CCCl)c2ccccc2)c2ccccc2)cc1`, for which the pEC50 was less than 4.36 and the pIC50 was 6.42.
As for `Cc1nc2c(o1)C(=Nc1ccc(I)cc1)c1ccccc1C2=Nc1ccc(I)cc1`, the result was inactive.
Take `O=[N+]([O-])c1cccc(C2SCc3nc4ccccc4n32)c1` (stereo unspecified): the pEC50 is less than 4.22 and the pIC50 is 4.43.
Consider `Cc1ccc(NC(=O)OCC(COc2ccc(Cl)cc2Cl)OC(=O)Nc2ccc(C)cc2)cc1` (stereo unspecified), for which the pEC50 is less than 5.54 and the pIC50 was less than 5.54.
On to `Cc1occc1C(=S)Nc1ccc(Cl)c(C(=O)OC2CCCC2)c1`, for which the pEC50 is 8.53 and the pIC50 is 4.78.
For the compound `NC(=O)c1ncn(CC2(CO)CCC2)c1N`, the pEC50 was less than 3.70 and the pIC50 was less than 3.70.
Consider `N/N=C(\N)SCc1ccc(N=C=S)cc1`, for which the outcome was inactive.
In the case of `C#CC(C)(C)Oc1cc(OC)c2c(=O)c3ccccc3n(C)c2c1`, the pEC50 was less than 3.70 and the pIC50 is 4.96.
In the same order, the values of `O=C1OC(Cc2ccccc2)=C(Cl)C(Cl)(Cc2ccccc2)C1Cl` (stereo unspecified) are less than 3.70 and 5.28.
The corresponding values for `CC(=O)OCC1OC(n2c(=O)[nH]c(=O)c3n[nH]nc32)C(OC(C)=O)C(OC(C)=O)C1OC(C)=O` (stereo unspecified) are less than 3.57 and less than 3.57.
In the same order, the values of `CC(=O)OCc1cn(S(=O)(=O)c2ccc(C)cc2)cn1` are less than 3.70 and 4.62.
On to `S=C(N/N=C/c1ccco1)NC12CC3CC(CC(C3)C1)C2`, for which the result was inactive.
Regarding `Nc1ccccc1C(=O)N=Nc1c(O)[nH]c2ccccc12`, the pEC50 is less than 3.70 and the pIC50 was less than 3.70.
For the compound `CCOC(=O)C1=NN(c2ccccc2)C(=O)/C1=C\n1c(=S)sc2ccccc21`, the pEC50 was less than 4.00 and the pIC50 is 4.29.
In the same order, the values of `CC1=C(C#N)C2C(=C(C)N1)C(N)=Nc1ccccc12` (stereo unspecified) are less than 3.70 and 4.87.
The corresponding values for `O=C1C(=C/C=C2/SC(c3ccccc3)(c3ccccc3)c3ccccc32)C(=O)c2ccccc21` are less than 3.70 and less than 3.70.
`O=C(O)c1ccc(Nc2nc3ccccc3nc2C(=O)O)cc1`: the pEC50 was less than 3.70 and the pIC50 was less than 3.70.
Turning to `COC1C(OC(=O)/C=C/C=C/C=C/C=C/C(=O)O)CCC2(CO2)C1C1(C)OC1CC=C(C)C` (stereo unspecified), the pEC50 was less than 6.70 and the pIC50 was 6.75.
For the compound `S=c1cn[nH]c2ccccc12`, the pEC50 is less than 3.18 and the pIC50 was 3.77.
For `CCN(CC)C(=S)S`, the pEC50 was less than 2.84 and the pIC50 was 4.40.
Take `S=C1CC(c2ccccc2)Sc2ccccc2N1` (stereo unspecified): the pEC50 is less than 3.70 and the negative logarithm of the IC50 (pIC50) was 4.02.
As to `O=[N+]([O-])c1nccn1CCCNc1c2ccccc2nc2ccccc12`, the result was inactive.
As to `CCCCCCCCCCCCNS(=O)(=O)c1ccc(-c2c3nc(c(-c4ccc(S(=O)(=O)NCCCCCCCCCCCC)cc4)c4ccc([nH]4)c(-c4ccc(S(=O)(=O)NCCCCCCCCCCCC)cc4)c4nc(c(-c5ccc(S(=O)(=O)NCCCCCCCCCCCC)cc5)c5ccc2[nH]5)C=C4)C=C3)cc1`, the pEC50 is less than 4.00 and the pIC50 is less than 4.00.
On to `COc1cc(=O)oc2c3c(ccc12)OC(C)(C)[C@H](OC(=O)C12CCC(C)(C(=O)O1)C2(C)C)[C@@H]3OC(=O)C12CCC(C)(C(=O)O1)C2(C)C` (stereo partly specified), for which the pEC50 is 6.59 and the pIC50 was 4.29.
In the case of `O=C(CNc1ccc(Cl)cc1Cl)NC1C=Cc2ccc(S(=O)(=O)Nc3ccc(Cl)cc3Cl)cc2C1=O` (stereo unspecified), the pEC50 is less than 3.70 and the pIC50 is less than 3.70.
Take `O=C(O)Cc1ccc2c(c1)C(=O)c1ccccc1CO2`: the outcome was inactive.
For the compound `O=C1NC(N2CCCC(CO)C2)=N/C1=C\c1ccc(Cl)cc1` (stereo unspecified), the pEC50 was less than 3.70 and the pIC50 was 3.94.
In the same order, the values of `Cc1ccc(-c2csc(=Nc3c(C)n(C)n(-c4ccccc4)c3=O)n2CCO)cc1` are less than 3.70 and 4.10.
The corresponding values for `C=C(C)C#CC(O)(C(=O)OC1CCN(C)CC1)C(C)C` (stereo unspecified) are less than 3.70 and less than 3.70.
On to `CNC(=O)NCCCCC(NC(C)=O)C(=O)NCc1ccccc1` (stereo unspecified), for which the pEC50 is less than 3.13 and the pIC50 is less than 3.13.
Take `COc1ccc2nc3c([N+](=O)[O-])ccc4c3c(c2c1)N=CN4CCN(C)C`: the pEC50 is less than 4.00 and the pIC50 is 5.99.
The corresponding values for `C=CCn1c(-c2ccc(Cl)cc2)csc1=Nc1ccccc1OC` are less than 3.70 and less than 3.70.
The corresponding values for `CC(C)C1=CC2C3C(=O)NC(=O)C3C1C1C3C(=O)NC(=O)C3C21` (stereo unspecified) are less than 3.10 and less than 3.10.
In the same order, the values of `CCc1n[nH]c(=O)n1-c1ccc2ccccc2c1` are less than 4.00 and less than 4.00.
In the case of `COC(=O)c1c(C)c2c(c(C)c1O)OC(=O)c1c(C)cc(O)c(C=O)c1O2`, the pEC50 is 3.73 and the pIC50 was less than 3.70.
The corresponding values for `O=[N+]([O-])c1ccccc1OCCOc1ccccc1[N+](=O)[O-]` are less than 3.70 and less than 3.70.
Regarding `ON1CCc2c([nH]c3ccccc23)C1c1ccc(Cl)cc1` (stereo unspecified), the result was inactive.
For `CC(C)(C)N/N=C(\Cc1occc(=O)c1O)C(=O)Nc1ccc([N+](=O)[O-])cc1[N+](=O)[O-]`, the pEC50 is less than 3.80 and the pIC50 was less than 3.80.
For the compound `COc1ccc(I)c(CCC(C(=O)O)C2=CCC3(CC2)OCCO3)c1` (stereo unspecified), the pEC50 was less than 3.84 and the negative-log IC50 (pIC50) is less than 3.84.
In the case of `CCCCCCCC(=O)[O-].N.N.N.N.N.[Co+3].[O-][Cl+3]([O-])([O-])[O-]`, the result was inactive.
In the case of `CO[C@@H]1C[C@H]2[C@@H]3CC[C@H]([C@H](C)CO)[C@@]3(C)CC[C@@H]2[C@@]2(C)CC[C@H]3C[C@]312`, the pEC50 is less than 3.76 and the pIC50 was 4.09.
In the same order, the values of `CSC(=S)CC(O)[C@@H]1CC2c3ccccc3C1c1ccccc12` (stereo partly specified) are less than 3.70 and 5.46.
In the same order, the values of `CCCCCCCCCCCCN(O)C(=O)c1ccccc1` are less than 4.77 and less than 4.77.
`O=C(/C=C\c1cccc2ccccc12)c1cccc2ccccc12`: the pEC50 was less than 5.05 and the pIC50 is less than 5.05.
As for `CCOC(=O)/C=C1\C[C@H](NC(=O)OCc2ccccc2)C(=O)N1CC(=O)OCC`, the pEC50 was less than 3.70 and the pIC50 was less than 3.70.
For the compound `CCOc1ccc(Nc2nc(N)nc(N)c2N=O)cc1`, the pEC50 was less than 3.82 and the pIC50 is 4.80.
In the same order, the values of `O=c1oc2ccccc2c(O)c1C(c1ccc(Cl)cc1)c1c(O)c2ccccc2oc1=O` are less than 3.70 and 4.58.
With `CC(=O)NC1C(OCc2ccccc2)OC(CO)C(O)C1OC(C)C(=O)NC(C)C(=O)NC(CCC(=O)NCCCNc1c2ccccc2nc2cccc([N+](=O)[O-])c12)C(N)=O` (stereo unspecified), the pEC50 was less than 4.00 and the pIC50 is 5.94.
In the same order, the values of `CC(C)CC(C(N)=O)C(=O)NC(Cc1ccccc1)NC(=O)CNC(=O)C(C)NC(=O)C(N)Cc1ccc(O)cc1` (stereo unspecified) are less than 3.70 and less than 3.70.
In the same order, the values of `S=c1nc(/C=C/c2ccc(Cl)c(Cl)c2)[nH][nH]1` are less than 4.44 and less than 4.44.
Regarding `CCOC(=O)/C(=C/c1ccc[nH]1)P(=O)(OCC)OCC`, the pEC50 is less than 3.36 and the negative-log IC50 (pIC50) was less than 3.36.
For the compound `O=C1CNCCCN2CCN(CCCNCC(=O)Nc3ccc(cc3)S(=O)(=O)c3ccc(cc3)NC(=O)CNCCCN3CCN(CCCNCC(=O)Nc4ccc(cc4)S(=O)(=O)c4ccc(cc4)N1)CC3)CC2`, the pEC50 is less than 4.30 and the pIC50 was less than 4.30.
On to `CC1C[C@@]23C4CCCN2CC2OC2[C@@]13C1CC4OC1=O` (stereo partly specified), for which the pEC50 was less than 3.74 and the pIC50 is less than 3.74.
